Reference: patent US20260317319A1, “NOVEL ERGOLINES AND METHODS OF TREATING MOOD DISORDERS” (Gilgamesh Pharma Inc., priority 2023, published 2026)
Like-named read-outs stand apart in the source and are kept apart here.

Legend:
5-HT2A receptor [1] = target: T1, 5-HT2A receptor (Homo sapiens, UniProt P28223); test: biochemical; assay type: binding; parameters: expressed in transfected cells; host or cells: HEK293, stably transfected
Outline: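 Binding affinity comes from a [^3H]ketanserin radioligand assay run under literature-adapted conditions.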

5-HT2B receptor [2] = target: T2, 5-HT2B receptor (Homo sapiens, UniProt P41595); test: 5-HT2B receptor radioligand binding ([3H]LSD)
T2 construct: expressed in transfected cells; host or cells: HEK293, stably transfected

5-HT2A receptor [3] = target: T1, 5-HT2A receptor; test: cell-based; assay type: cell-based; settings: for Emax / 5-HT2A Arrestin % Act @ Max Dose: max dose; for Emax: read-out: 5-HT2A Arrestin % Act @ Max Dose
Outline: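 PathHunter β-arrestin recruitment (enzyme fragment complementation): 5-HT2A fused to ProLink donor in cells co-expressing β-arrestin–β-galactosidase acceptor, seeded and held at 37° C before testing. Chemiluminescent read-out; agonist % activity = (sample RLU − vehicle)/(max control ligand − vehicle) × 100.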

5-HT1A receptor = target: T3, 5-HT1A receptor (Homo sapiens, UniProt P08908); test: cell-based; settings: agonist, Ca2+ flux; for Emax: CHO, read-out: 5-HT1A % Act @ Max Dose
T3 construct: expressed in transfected cells; host or cells: CHO cells, stably transfected
T3 sequence (P08908 1-422): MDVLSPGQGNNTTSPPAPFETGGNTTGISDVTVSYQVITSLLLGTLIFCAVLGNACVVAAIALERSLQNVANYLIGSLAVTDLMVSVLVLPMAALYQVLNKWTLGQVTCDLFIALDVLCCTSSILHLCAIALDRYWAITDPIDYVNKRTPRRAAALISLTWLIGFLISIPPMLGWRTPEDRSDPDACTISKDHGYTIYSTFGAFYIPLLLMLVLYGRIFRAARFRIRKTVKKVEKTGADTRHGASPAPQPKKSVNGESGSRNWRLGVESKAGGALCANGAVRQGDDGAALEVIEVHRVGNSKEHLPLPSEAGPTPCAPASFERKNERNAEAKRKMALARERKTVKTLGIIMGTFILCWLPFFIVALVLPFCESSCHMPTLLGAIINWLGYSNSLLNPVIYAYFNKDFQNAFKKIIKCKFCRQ
Outline: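 Receptor agonism was assessed as intracellular calcium mobilization in stably transfected cells, with CHO cells additionally carrying Gα15 for the 5-HT1A readout. Calcium was monitored with Fluo-4 Direct dye.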

5-HT2B receptor [4] = target: T2, 5-HT2B receptor; test: cell-based; assay type: cell-based; settings: Ca2+ flux; for Emax: HEK293, agonist, read-out: 5-HT2B % Act @ Max Dose; for Emax / 5-HT2B % Act @ Max Dose: HEK293, max dose
Outline: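 FLIPR Tetra fluorescence read-out of calcium flux after compound addition. Receptor-expressing stable lines were used (HEK293 for 2A/2B; CHO with Gα15 for 1A), dye-loaded with Fluo-4 Direct and 2.5 mM final probenecid, 50 min at 37 °C.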

5-HT2A receptor [5] = target: T1, 5-HT2A receptor; test: cell-based; assay type: cell-based; parameters: expressed in transfected cells; host or cells: HEK293, stably transfected; settings: for Emax: HEK293, agonist, read-out: 5-HT2A % Act @ Max Dose
Outline: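 Agonist activity measured by FLIPR Ca2+ flux in stably transfected cells: HEK293 for 5-HT2A and 5-HT2B, CHO co-expressing Gα15 for 5-HT1A. Cells loaded with Fluo-4 Direct dye plus probenecid (2.5 mM final) for 50 min at 37 °C, 5% CO2; compounds added and fluorescence read on FLIPR Tetra.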

5-HT2C receptor = target: T4, 5-HT2C receptor (Homo sapiens, UniProt P28335); test: cell-based; settings: for Emax: read-out: 5-HT2C % Act @ Max Dose
T4 sequence (P28335 33-458): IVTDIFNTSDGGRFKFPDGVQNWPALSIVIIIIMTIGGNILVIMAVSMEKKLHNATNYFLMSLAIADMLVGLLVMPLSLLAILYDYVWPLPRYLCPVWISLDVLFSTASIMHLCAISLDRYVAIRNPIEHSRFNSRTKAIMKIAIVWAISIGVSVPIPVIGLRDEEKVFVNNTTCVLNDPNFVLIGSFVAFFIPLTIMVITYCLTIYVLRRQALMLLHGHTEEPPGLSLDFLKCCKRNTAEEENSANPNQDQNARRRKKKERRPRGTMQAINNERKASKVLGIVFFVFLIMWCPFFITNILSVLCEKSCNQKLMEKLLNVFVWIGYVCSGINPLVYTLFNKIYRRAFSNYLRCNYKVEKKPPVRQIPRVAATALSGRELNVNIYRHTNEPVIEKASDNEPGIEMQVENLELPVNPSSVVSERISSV

5-HT1B receptor = target: T5, 5-HT1B receptor (Homo sapiens, UniProt P28222); test: cAMP accumulation functional assay at 5-HT1B; assay type: cell-based; settings: agonist, cAMP accumulation; for Emax: read-out: 5-HT1B % Act @ Max Dose
T5 construct: expressed in transfected cells
Outline: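 Agonist activity measured as cAMP accumulation in cells stably transfected with human 5-HT1B. Cells incubated 60 min at RT, then detection reagent added for a further 60 min at RT before plate reading.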

in vitro [6] = assay type: in vitro ADME, human; settings: HLM 0.50 mg/mL, NADPH 1 mM, 1 μM compound, pH 7.4, 37° C., 60 min
in vitro [7] = assay type: in vitro ADME, rat; settings: RLM (male Sprague-Dawley) 0.50 mg/mL, NADPH 1 mM, 1 μM compound, pH 7.4, 37° C., 60 min
Source text: RLM Stability Pooled RLM from male Sprague-Dawley rats (Xenotech R1000) were used.

C57BL/6 mice = test: Automated mouse head twitch response (HTR) assay (video tracking); assay type: in vivo; settings: sc; for # HTR/20 min at Most Efficacious Dose: 20 min recording, at each compound's most efficacious dose (35*, 43*, 44*: suppressed below vehicle 14.5, dose is that of least suppression); for # HTR/20 min at Most Efficacious Dose / Peak HTR/min at Most Efficacious Dose: mean; for Most Efficacious Dose for Peak HTR/min: dose giving highest peak HTR/min (35*, 43*, 44*: dose that resulted in the least suppression); for Most Efficacious Dose for # HTR/20 min: dose giving most HTR/20 min (35*, 43*, 44*: dose that resulted in the least suppression); for Peak HTR/min at Most Efficacious Dose: rate over 2-min bins, at each compound's most efficacious dose (35*, 43*, 44*: suppressed below vehicle 1.62, dose is that of least suppression)
Protocol: Disclosed compounds were tested for their ability to induce a head twitch response (HTR) in mice using an automated video tracking procedure, with the results summarized in Table 8 and FIG. 4.
Animals. Adult male C57BL/6 mice aged 8-10 weeks (Jackson Labs, Bar Harbor, ME; body weight 18-25 g) were used in this experiment. Animals were group housed under environmentally controlled temperatures and 12-hour light/dark cycles (lights on between 06:00-18:00 h), with ad libitum food and water. Mice were habituated to the facility for at least 5 days prior to testing. All animal procedures were approved by the local IACUC and conducted in accordance with the NIH Guide for the Care and Use of Laboratory Animals.
Procedure. Mice were administered one dose of the drug and immediately placed into a small open field for behavioral observation. High-speed video of animals' behavior was captured continuously for 20 min. Video recordings were imported into an image processing software, which detects multiple points of interest on each animal's body, including the left and right ear. HTR events were defined as periodic deviations of ear locations from temporally averaged ear locations. Predefined thresholds for magnitude and frequency of location deviations were used to filter HTR events from random head movements. The method was validated by comparing detected events with manual (human) observations and found to have an accuracy >95%. The total number of HTR events counted during the 20-min recording and the rate in HTR/min calculated over 2-min bins were determined for each animal at each dose.
Statistical Analysis. The data points shown are the mean±standard error of the mean (SEM).

in vitro [8] = assay type: in vitro ADME, mouse; settings: MLM (male CD-1) 0.50 mg/mL, NADPH 1 mM, 1 μM compound, pH 7.4, 37° C., 60 min
Source text: MLM Stability Pooled MLM from male CD-1 mice (BIOIVT M00501) were used.

[9] = agonist, beta-arrestin recruitment, PathHunter, read-out: 5-HT2A Arrestin EC50
[10] = agonist, beta-arrestin recruitment
[11] = agonist, Ca2+ flux, Eurofins DiscoverX protocol, max dose
[12] = agonist, Ca2+ flux, Eurofins DiscoverX protocol, read-out: 5-HT2C EC50

T1 sequence (P28223 whole entry): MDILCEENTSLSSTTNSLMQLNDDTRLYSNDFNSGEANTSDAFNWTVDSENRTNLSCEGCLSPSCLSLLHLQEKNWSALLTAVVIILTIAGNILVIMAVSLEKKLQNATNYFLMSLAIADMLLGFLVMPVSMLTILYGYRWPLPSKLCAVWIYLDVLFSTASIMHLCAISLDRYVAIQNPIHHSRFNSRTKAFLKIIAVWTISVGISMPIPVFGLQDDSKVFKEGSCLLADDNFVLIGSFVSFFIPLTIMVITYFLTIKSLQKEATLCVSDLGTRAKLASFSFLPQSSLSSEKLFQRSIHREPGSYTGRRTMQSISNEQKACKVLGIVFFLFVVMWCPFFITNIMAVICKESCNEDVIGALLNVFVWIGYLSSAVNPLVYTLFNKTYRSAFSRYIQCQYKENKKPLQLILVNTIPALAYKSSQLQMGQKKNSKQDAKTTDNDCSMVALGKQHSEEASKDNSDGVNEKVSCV
T5 sequence (P28222 whole entry): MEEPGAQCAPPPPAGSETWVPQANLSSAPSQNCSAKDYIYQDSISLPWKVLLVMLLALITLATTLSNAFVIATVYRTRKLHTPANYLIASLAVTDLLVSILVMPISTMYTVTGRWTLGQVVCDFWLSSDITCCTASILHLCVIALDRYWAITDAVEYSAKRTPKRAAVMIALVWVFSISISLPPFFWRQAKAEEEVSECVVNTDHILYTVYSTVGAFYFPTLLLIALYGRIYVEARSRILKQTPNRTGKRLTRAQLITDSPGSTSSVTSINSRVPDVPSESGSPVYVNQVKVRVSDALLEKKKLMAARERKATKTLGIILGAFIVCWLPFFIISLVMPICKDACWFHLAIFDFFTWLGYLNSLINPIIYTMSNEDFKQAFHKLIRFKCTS
T2 sequence (P41595 whole entry): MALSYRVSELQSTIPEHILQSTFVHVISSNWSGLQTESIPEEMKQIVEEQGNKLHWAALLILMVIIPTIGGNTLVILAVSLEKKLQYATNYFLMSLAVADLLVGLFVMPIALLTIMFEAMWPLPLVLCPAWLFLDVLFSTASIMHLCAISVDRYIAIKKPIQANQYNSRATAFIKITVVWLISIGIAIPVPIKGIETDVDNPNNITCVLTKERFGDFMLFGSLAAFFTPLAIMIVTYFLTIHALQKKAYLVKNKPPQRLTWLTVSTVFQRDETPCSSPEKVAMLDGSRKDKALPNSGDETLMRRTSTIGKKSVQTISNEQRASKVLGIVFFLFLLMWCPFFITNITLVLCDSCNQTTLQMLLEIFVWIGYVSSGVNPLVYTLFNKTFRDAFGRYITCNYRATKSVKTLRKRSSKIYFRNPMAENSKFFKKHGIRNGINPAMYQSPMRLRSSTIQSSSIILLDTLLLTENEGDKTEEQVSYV

SMILES	Ki (5-HT2B receptor [2]; read-out: 5-HT2B Receptor Ki)	EC50 (5-HT2A receptor [3]; [9])	Emax (5-HT2A receptor [3]; [10])	Emax (5-HT1A receptor; CHO cells with Gα15, max dose)	Emax (5-HT2B receptor [4])	Emax (5-HT2A receptor [5]; Ca2+ flux, HEK293, max dose)	Emax (5-HT2C receptor; [11])	EC50 (5-HT2C receptor; [12])	Emax (5-HT1B receptor; max dose)	Intrinsic clearance (Clint) (in vitro [6])	half-life (t1/2) (in vitro [6])	# HTR/20 min at Most Efficacious Dose (C57BL/6 mice)	Most Efficacious Dose for Peak HTR/min (C57BL/6 mice)	Most Efficacious Dose for # HTR/20 min (C57BL/6 mice)	Peak HTR/min at Most Efficacious Dose (C57BL/6 mice)	5-HT2A Arrestin % Act @ Max Dose (5-HT2A receptor [3]; [10])	5-HT2B % Act @ Max Dose (5-HT2B receptor [4]; agonist)	other results
CCN(CC)C(=O)[C@@H]1C=C2c3cccc4[nH]c(Br)c(c34)C[C@H]2N(CCC(F)(F)F)C1 [Compound 42, (6aR,9R)-5-bromo-N,N-diethyl-7-(3,3,3-trifluoropropyl)-4,6,6a,7,8,9-hexahydroindolo[4,3-fg]quinoline-9-carboxamide]	238 nM	16 nM	49.4%	9.13%	2.58%	8.29%	17.9%	> 10000 nM	33.1%									potency in receptor binding (5-HT2A receptor [1]; radioligand binding, 5-HT2A): potent binding to 5-HT2A; agonist activity at any of the serotonin receptors tested (5-HT2A receptor [5]; functional assays at 5-HT2A, 2B, 2C, 1A, 1B): no agonist activity at any of the receptors tested
CCN(CC)C(=O)[C@@H]1C=C2c3cccc4[nH]cc(c34)C[C@H]2NC1 [Compound 83]		2.71 nM								<9.6 µL/min/mg	>2.42 h	29.625 HTR/20 min	(10) mg/kg, sc	(3.2) mg/kg, sc	3.625 HTR/min	88.78%	69.27%	Ki (5-HT2A receptor [1]; [3H]ketanserin 1 nM, HEK293 stable cell line, 1 h, 25 °C): 5.65 nM; Intrinsic clearance (Clint) (in vitro [7]): 15.3 µL/min/mg; half-life (t1/2) (in vitro [7]): 1.51 h; Ki (5-HT2B receptor [2]; [3H]LSD 2 nM, HEK293 stable cell line, 1 h, 25 °C, read-out: 5-HT2B Receptor Ki): 115 nM; Intrinsic clearance (Clint) (in vitro [8]): 12.6 µL/min/mg; half-life (t1/2) (in vitro [8]): 1.835 h; EC50 (5-HT2B receptor [4]; agonist, HEK293): 22.5 nM; EC50 (5-HT2A receptor [5]; agonist, Ca2+ flux, HEK293): 1.7 nM; 5-HT2A % Act @ Max Dose (5-HT2A receptor [5]; agonist, Ca2+ flux, HEK293, max dose): 107.11%; EC50 (5-HT1B receptor): 27.4 nM; 5-HT1B % Act @ Max Dose (5-HT1B receptor; max dose): 88.07%
CCC[C@@H](C)NC(=O)[C@@H]1C=C2c3cccc4[nH]c(Br)c(c34)C[C@H]2N(C)C1 [Compound 45, (6aR,9R)-5-bromo-N—((R)-pentan-2-yl)-7-methyl-4,6,6a,7,8,9-hexahydroindolo[4,3-fg]quinoline-9-carboxamide]	3.65 nM	4.28 nM	45.3%	12.5%	-0.31%	22.3%	22.1%	> 10000 nM	87.1%									
CCN(CC)C(=O)[C@@H]1C=C2c3cccc4[nH]c(Br)c(c34)C[C@H]2N(C)C1 [Compound 35, (6aR,9R)-5-bromo-N,N-diethyl-7-methyl-4,6,6a,7,8,9-hexahydroindolo[4,3-fg]quinoline-9-carboxamide]										57.4 µL/min/mg	0.403 h	2.38 HTR/20 min	(0.1) mg/kg, sc	(0.1) mg/kg, sc	0.56 HTR/min	30.94%	-0.13%	Ki (5-HT2B receptor [2]): 4.96 nM; EC50 (5-HT2A receptor [3]): 1.67 nM; EC50 (5-HT1A receptor; CHO cells with Gα15): > 100000 nM; 5-HT1A % Act @ Max Dose (5-HT1A receptor; CHO cells with Gα15, max dose): 11.94%; EC50 (5-HT2C receptor): > 10000 nM; 5-HT2C % Act @ Max Dose (5-HT2C receptor; [11]): 0%
